# Test results: patent US20070197388A1, “Haloperoxidase treatment to control algae” (Buckman Laboratories International, Inc., priority 2006, published 2007)
# How the values were obtained:
# Type in all cases: cell-based
# [1] = test system: Chlorella sp. (ATCC 7516); experiment: Evaluation of algaecidal activity (MIC) and checkerboard synergy, Chlorella sp.
# Description: Evaluation of […] Activity: This test method provides a technique for screening newly synthesized compounds for their effectiveness to inhibit (repress) algae growth. […] Apparatus: Test tubes, 18-150 mm. Sterilized test tubes are required. Incubator, capable of a constant (±2° C.) temperature and light regulation. Reagents and Materials: [table] Inoculum: Cell suspension from a culture grown in modified Allen's medium for 14 days or as needed to attain a desired cell mass of Chlorella sp. (ATCC 7516) or Phormidium faveolarum (UTEX 427). The inoculum is calibrated at 82% transmittance measured at 590 nanometers wavelength before inoculation. Procedure: Medium preparation: Modified Allen's medium (Allen, A. A., 1968). [table] Sterilize the medium in the autoclave for 20 minutes at 15 pounds pressure (121° C.). After autoclaving, cool medium to 45-50° C. and dispense 5 ml of medium per test tube, then add the compound and the inoculum. Compound incorporation: Prepare a stock solution in water of the compound to be tested. The concentration of the stock solution is dependent on the largest dosage desired to be tested. Dilute the stock solution to obtain dosages smaller than that chosen for the stock solution. A maximum amount of 100 microliters of stock solution or the corresponding dilution should be added per test tube. Inoculation: Add 100 microliters of inoculum per test tube, per type of medium and type of inoculum. Incubation: Place the test tubes containing the treatments in an incubator set at 24° C. Light is provided by plant growth fluorescent tubes set to provide 16 h of light and 8 h of darkness. […] The minimum inhibitory concentration (MIC) of the compound is the smallest dosage showing negative algae growth. Synergy Evaluation: Synergy was measured by checkerboards dilutions (Yan and Hancock, 2001), in which one compound is diluted along the rows of test tubes and the other is diluted along the columns. This method focuses on looking for a reduction in the MIC of each component in the presence of the other.
# [2] = test system: Phormidium faveolarum (UTEX 427); experiment: Evaluation of algaecidal activity (MIC) and checkerboard synergy, Phormidium faveolarum; details: alone, system with 1 ppm a.i. Hydrogen Peroxide, 14 days at 24° C.
# Description: Evaluation of Algaecidal Activity: This test method provides a technique for screening newly synthesized compounds for their effectiveness to inhibit (repress) algae growth.
# Apparatus: Test tubes, 18-150 mm. Sterilized test tubes are required.
# Incubator, capable of a constant (±2° C.) temperature and light regulation.
# Inoculum: Cell suspension from a culture grown in modified Allen's medium for 14 days or as needed to attain a desired cell mass of Chlorella sp. (ATCC 7516) or Phormidium faveolarum (UTEX 427). The inoculum is calibrated at 82% transmittance measured at 590 nanometers wavelength before inoculation.
# Procedure: Medium preparation: Modified Allen's medium (Allen, A. A., 1968).
# Sterilize the medium in the autoclave for 20 minutes at 15 pounds pressure (121° C.). After autoclaving, cool medium to 45-50° C. and dispense 5 ml of medium per test tube, then add the compound and the inoculum. […]
# Synergy Evaluation: Synergy was measured by checkerboards dilutions (Yan and Hancock, 2001), in which one compound is diluted along the rows of test tubes and the other is diluted along the columns. […] The result is expressed as the Fractional Inhibitory Concentration Index (FIC), calculated as follows: FIC=[A]/MICA+[B]/MICB where, • MICA and MICB=MICs of the compounds A and B alone • [A] and [B]=MICs of the compounds A and B when in combination.
# [3] = test system: Enterobacter aerogenes (ATCC 13048); experiment: Evaluation of bactericidal activity (MIC, >=90% kill) and checkerboard synergy, Enterobacter aerogenes; details: Klebsiella aerogenes, ATCC13048; alone; system with 2 ppm a.i. Hydrogen Peroxide; 18 hours at 37° C.; read-out: MICA = MIC of Dichloramine B
# Description: Synergy Evaluation: Synergy was measured by checkerboards dilutions (Yan and Hancock, 2001), in which one compound is diluted along the rows of test tubes and the other is diluted along the columns. This method focuses on looking for a reduction in the MIC of each component in the presence of the other. The result is expressed as the Fractional Inhibitory Concentration Index (FIC), calculated as follows: FIC=[A]/MICA+[B]/MICB where, • MICA and MICB=MICs of the compounds A and B alone • [A] and [B]=MICs of the compounds A and B when in combination.
# Evaluation of Bactericidal Activity: This method is suitable for use in evaluating the antibacterial properties of chemicals by determining their MIC value. The MIC value represents the Minimum Inhibitory Concentration defined as the lowest level of compound required to achieve a ≧90% kill of a given organism.
# Equipment • 1. Test tubes, 18×150 mm disposable culture tubes sterile • 2. Sterile 1 ml and 10 ml pipettes • 3. Incubator capable of maintaining a temperature of 37° C.±1° C. • 4. Autoclave • 5. pH meter • 6. […]
# Rating of tubes via plate count method: The Pour Plate Count agar was prepared as described in Standard Methods (American Public Health Association; 1995). […] Colonies formed in or on the plate count medium within 48±2 h were counted as described in Standard Methods, and the results were reported as CFU/milliliter. […]
# [4] = alone, system with 1 ppm a.i. Hydrogen Peroxide, 14 days at 24° C.
molecule,measurement,setting,value
"CCCCCCCCCCCCCCCC[N+](C)(C)CC.[Br-] [EHDB, Ethyl-n-Hexadecyl Dimethylammonium Bromide]",MICA = MIC of EHDB,[1]; [4],0.5 MICA mg a.i./l
same,MIC,"[2]; 336 h, read-out: MICA = MIC of EHDB",0.5 µg/mL
Benzalkonium Chloride [reference compound],dosage controlling algae growth,"[1]; Example 7, reinoculated only after 14 days, incubated 14 days (result not shown)",2 ppm a.i.
same,MICA = MIC of Benzalkonium Chloride,"[1]; alone, reinoculated after 14 days and treated with 1 ppm of hydrogen peroxide, incubated 14 days",2 MICA mg a.i./l
same,MICA = MIC of Benzalkonium Chloride,[1]; [4],1 MICA mg a.i./l
same,MICA = MIC of Benzalkonium Chloride,[2],2 MICA mg a.i./l
"O=S(=O)(c1ccccc1)N(Cl)Cl [Dichloramine B, N,N-dichlorobenzenesulfonamide]",MIC,[3],5 µg/mL
same,MIC Dichloramine B combined with Haloperoxidase and Hydrogen Peroxide,"[1]; combined with 1 ppm product of Haloperoxidase (Novozyme) and 2 ppm a.i. Hydrogen Peroxide, 14 days at 24° C.",< 0.07 ppm a.i.
"Myeloperoxidase: a myeloperoxidase enzyme obtained from Biodesign International (protein, UniProt P05164 165-745, looked up) Myeloperoxidase: VTCPEQDKYRTITGMCNNRRSPTLGASNRAFVRWLPAEYEDGFSLPYGWTPGVKRNGFPVALARAVSNEIVRFPTDQLTPDQERSLMFMQWGQLLDHDLDFTPEPAARASFVTGVNCETSCVQQPPCFPLKIPPNDPRIKNQADCIPFFRSCPACPGSNITIRNQINALTSFVDASMVYGSEEPLARNLRNMSNQLGLLAVNQRFQDNGRALLPFDNLHDDPCLLTNRSARIPCFLAGDTRSSEMPELTSMHTLLLREHNRLATELKSLNPRWDGERLYQEARKIVGAMVQIITYRDYLPLVLGPTAMRKYLPTYRSYNDSVDPRIANVFTNAFRYGHTLIQPFMFRLDNRYQPMEPNPRVPLSRVFFASWRVVLEGGIDPILRGLMATPAKLNRQNQIAVDEIRERLFEQVMRIGLDLPALNMQRSRDHGLPGYNAWRRFCGLPQPETVGQLGTVLRNLKLARKLMEQYGTPNNIDIWMGGVSEPLKRKGRVGPLLACIIGTQFRKLRDGDRFWWENEGVFSMQQRQALAQISLPRIICDNTGITTVSKNNIFMSNSYPRDFVNCSTLPALNLASWREAS",MIC (ppm product),"[1]; 2 ppm a.i. hydrogen peroxide as substrate, 4 ppm a.i. ammonium bromide as electron donor",<0.1 ppm product
